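Exposure lasted 48 hours, with cells grown in 96-well plates and compounds tested at five concentrations. The concentration for 50% growth inhibition is given as GI50.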 Calls of active or inactive are those of the source. No stated cut-off is given here; in the data, active = GI50 up to about 1.1 µM and inactive = higher.
How the values were obtained:
Assay in all cases: NCI-60 cell line screen, 48 h
[1] = tested on: UACC-62
[2] = tested on: ACHN
[3] = tested on: HOP-92
[4] = tested on: Hs-578T
[5] = tested on: OVCAR-4
[6] = tested on: HOP-62
[7] = tested on: A549
[8] = tested on: NCI-H23
[9] = tested on: K562
[10] = tested on: OVCAR-5
[11] = tested on: HT-29
[12] = tested on: KM12
[13] = tested on: UO-31
[14] = tested on: HCT-116
[15] = tested on: SK-MEL-2
[16] = tested on: MDA-MB-231
[17] = tested on: OVCAR-8
[18] = tested on: MDA-MB-435
[19] = tested on: SNB-75
[20] = tested on: HCT-15
[21] = tested on: RXF 393
[22] = tested on: TK-10
[23] = tested on: DU-145
[24] = tested on: NCI-H226
[25] = tested on: SR
[26] = tested on: SF-268
[27] = tested on: M14
[28] = tested on: SF-539
[29] = tested on: MOLT-4
[30] = tested on: SK-OV-3
[31] = tested on: OVCAR-3
[32] = tested on: HL-60
[33] = tested on: LOX IMVI
[34] = tested on: CCRF-CEM
[35] = tested on: CAKI-1
[36] = tested on: Malme-3M
[37] = tested on: RPMI-8226
[38] = tested on: PC-3
[39] = tested on: SK-MEL-5
[40] = tested on: U-251
[41] = tested on: 786-0
[42] = tested on: SW-620
[43] = tested on: SNB-19
[44] = tested on: HCC 2998
[45] = tested on: EKVX
[46] = tested on: NCI/ADR-RES
[47] = tested on: MCF7
[48] = tested on: COLO 205
[49] = tested on: A498
[50] = tested on: SF-295
[51] = tested on: NCI-H460
[52] = tested on: UACC-257
[53] = tested on: SN12C
[54] = tested on: MDA-N
[55] = tested on: NCI-H522
[56] = tested on: T47D
[57] = tested on: IGROV-1
[58] = tested on: SK-MEL-28

Measured: GI50

Cc1ccc(S(=O)(=O)NC(=O)Nc2nnc(S(N)(=O)=O)s2)cc1
inactive: [1] > 100 µM | [2] > 100 µM | [3] > 100 µM | [4] > 100 µM | [5] > 100 µM | [6] > 100 µM | [7] > 100 µM | [8] > 100 µM | [9] > 100 µM | [10] > 100 µM | [11] > 100 µM | [12] > 100 µM | [13] > 100 µM | [14] > 100 µM | [15] > 100 µM | [16] > 100 µM | [17] > 100 µM | [18] > 100 µM | [19] > 100 µM | [21] > 100 µM | [22] > 100 µM | [23] > 100 µM | [24] > 100 µM | [25] > 100 µM | [26] > 100 µM | [27] > 100 µM | [28] > 100 µM | [29] > 100 µM | [30] > 100 µM | [31] > 100 µM | [32] > 100 µM | [33] > 100 µM | [35] > 100 µM | [36] > 100 µM | [37] > 100 µM | [38] > 100 µM | [39] > 100 µM | [40] > 100 µM | [41] > 100 µM | [42] > 100 µM | [43] > 100 µM | [44] > 100 µM | [45] > 100 µM | [46] > 100 µM | [47] > 100 µM | [48] > 100 µM | [49] > 100 µM | [50] > 100 µM | [51] > 100 µM
> 100 µM: [20]
active: [34] < 0.01 µM

O=C1c2c(O)ccc(O)c2C(=O)c2c(NCCNCCO)ccc(NCCNCCO)c21 [MITOXANTRONE]
active: [3] 0.0355 µM | [7] < 0.01 µM | [9] 0.0741 µM | [14] 0.0373 µM | [18] 0.259 µM | [52] 0.995 µM | [28] < 0.01 µM | [39] 0.0719 µM | [49] 0.112 µM

COc1cc([C@@H]2c3cc4c(cc3[C@@H](NC(=O)NO)[C@H]3COC(=O)[C@H]23)OCO4)cc(OC)c1O
3.8 µM: [20]
inactive: [53] 4.71 µM | [3] > 100 µM | [5] > 100 µM | [6] 5.37 µM | [9] 3.1 µM | [11] 5.19 µM | [14] 4.84 µM | [54] 2.15 µM | [15] 4.38 µM | [16] 4.42 µM | [55] > 100 µM | [18] 2.29 µM | [22] > 100 µM | [25] 9.12 µM | [52] > 100 µM | [26] 61.5 µM | [28] 3.6 µM | [32] 3.72 µM | [33] 4.58 µM | [34] 12.7 µM | [35] 6.31 µM | [37] 4.03 µM | [38] 4.91 µM | [40] 6.9 µM | [41] 4.98 µM | [42] 6.19 µM | [43] > 100 µM | [45] 7.45 µM | [46] 12.7 µM | [48] 5.3 µM | [56] > 100 µM | [57] 3.25 µM | [49] 14 µM | [51] 4.42 µM

C/C(=N\Nc1nc2ccccc2[nH]1)c1ncccn1
active: [53] 0.0715 µM | [1] 0.0693 µM | [2] < 0.0232 µM | [3] 0.0552 µM | [5] 0.0528 µM | [7] 0.0682 µM | [8] 0.0621 µM | [9] 0.044 µM | [10] 0.735 µM | [11] 0.0236 µM | [12] 0.136 µM | [13] < 0.0202 µM | [14] 0.0226 µM | [54] 0.388 µM | [16] 0.059 µM | [17] 0.043 µM | [55] < 0.0164 µM | [18] 0.0968 µM | [19] 0.119 µM | [21] 0.0771 µM | [24] 0.0422 µM | [25] < 0.021 µM | [52] 0.136 µM | [58] 0.0948 µM | [26] 0.0382 µM | [27] 0.0417 µM | [28] 0.0172 µM | [29] < 0.01 µM | [30] 0.214 µM | [31] 0.871 µM | [32] < 0.01 µM | [33] 0.047 µM | [34] 0.0303 µM | [35] < 0.0224 µM | [36] < 0.0243 µM | [37] 0.0585 µM | [39] 0.0574 µM | [40] 0.0462 µM | [41] 0.0238 µM | [42] 0.0344 µM | [43] 0.0879 µM | [44] 0.721 µM | [45] 0.026 µM | [46] 0.0608 µM | [47] 0.0321 µM | [48] < 0.0197 µM | [56] 0.0215 µM | [57] < 0.031 µM | [49] 0.0851 µM | [50] 0.0453 µM | [51] 0.0299 µM
inactive: [4] 12.1 µM | [6] 1.64 µM | [15] 2.01 µM | [22] 1.31 µM | [38] 1.92 µM
0.0302 µM: [20]

C[C@@H]1CC[C@]2(C)C3(C)CC[C@]2(OC3=O)[C@@]12CC(c1ccoc1)OC2=O (stereo partly specified)
31.4 µM: [20]
inactive: [53] 33.8 µM | [1] 61.4 µM | [2] 22.4 µM | [3] 32.8 µM | [4] 54.2 µM | [5] 20.7 µM | [6] > 100 µM | [7] > 100 µM | [8] 29.6 µM | [9] 34 µM | [10] 30.8 µM | [11] 54.7 µM | [12] > 100 µM | [13] 28 µM | [14] 17.5 µM | [54] 34.4 µM | [15] 58.6 µM | [55] 2.15 µM | [18] 25.3 µM | [21] 24.8 µM | [22] 39 µM | [23] > 100 µM | [24] > 100 µM | [25] 34.8 µM | [58] 26.7 µM | [26] 37.2 µM | [27] 25.1 µM | [28] 30.5 µM | [29] 31 µM | [30] > 100 µM | [31] 26.2 µM | [32] 21.6 µM | [33] 20.3 µM | [34] 22.8 µM | [35] 34.3 µM | [36] 21.1 µM | [37] 38.2 µM | [38] 40.6 µM | [39] 62.5 µM | [40] 44.5 µM | [41] 20.5 µM | [42] 26.9 µM | [43] > 100 µM | [44] > 100 µM | [45] 72.3 µM | [46] 49.3 µM | [47] 61 µM | [48] 19.3 µM | [56] > 100 µM | [57] 26.9 µM | [49] > 100 µM | [50] > 100 µM | [51] 86.5 µM

COc1cc(NCc2ccc3nc(OC)c(OC)nc3c2)cc(OC)c1OC
> 100 µM: [20]
inactive: [53] > 100 µM | [1] > 100 µM | [2] > 100 µM | [3] > 100 µM | [5] > 100 µM | [6] > 100 µM | [7] > 100 µM | [8] > 100 µM | [9] 97.3 µM | [10] > 100 µM | [11] > 100 µM | [12] > 100 µM | [13] > 100 µM | [14] > 100 µM | [54] > 100 µM | [15] > 100 µM | [16] > 100 µM | [17] > 100 µM | [55] 86.5 µM | [18] > 100 µM | [19] 54.8 µM | [21] > 100 µM | [23] > 100 µM | [24] > 100 µM | [25] 89.9 µM | [52] > 100 µM | [58] > 100 µM | [26] > 100 µM | [27] > 100 µM | [28] > 100 µM | [29] > 100 µM | [30] > 100 µM | [31] > 100 µM | [32] > 100 µM | [33] > 100 µM | [34] 83.9 µM | [35] > 100 µM | [36] > 100 µM | [38] 89.1 µM | [39] > 100 µM | [40] > 100 µM | [41] > 100 µM | [42] > 100 µM | [43] > 100 µM | [44] > 100 µM | [45] 77.4 µM | [46] 42.1 µM | [47] 69.5 µM | [48] > 100 µM | [56] 18.6 µM | [57] > 100 µM | [49] > 100 µM | [50] 80.5 µM | [51] > 100 µM

Source: ChEMBL document CHEMBL1201862, “PubChem BioAssay data set” (2004)
